Patent US9487749B2 (priority 2009, dated 2016)

Experiments:
[1] = tested on: Chlorella minutissima; test: Algal growth with MSM by percent transmittance; type: cell-based
Protocol: (§1) Two species of Chlorella were examined for growth—Chlorella sorokiniana a freshwater species and Chlorella minutissima a marine species. […] Growth was measured on day 0, 1, 2, 3, 4, 5, 6, 7, 8, 9 and 10. […] The following media were purchased from UTEX Culture Collection of Algae: Enriched Salt Water Medium and Volvox Dextrose Medium.
(§2) The algae were grown for 48 hours in the appropriate medium. The initial suspension was enumerated for each alga and is referred to as the starting inoculums. Chlorella sorokiniana was at 381 million cells per milliliter and Chlorella minutissima was at 19 million cells per milliliter. One milliliter of the algal solution was placed into 9 mLs of medium and mixed by vortexing. […] The tube of algae and MSM were incubated at room temperature with exposure to sunlight. […] Each dilution of MSM for each organism was set up in and analyzed in triplicate for each time interval measured. The samples were measured by percent transmittance on a UV/VIS spectrophotometer at wavelength 750 nm. The medium stock was tested for percent transmittance background levels at every time interval were measured. The lower percent transmittance indicated a higher growth factor.

[2] = tested on: Chlorella sorokiniana; test: Algal growth with MSM by percent transmittance; type: cell-based
Protocol: as §1, §2

CS(C)(=O)=O [MSM, Methylsulfonylmethane]
percent transmittance ([1]; MSM Percentage 0.5, day 0, 750 nm): 93.5% | percent transmittance ([1]; MSM Percentage 0.5, day 1, 750 nm): 70.1% | percent transmittance ([1]; MSM Percentage 0.5, day 2, 750 nm): 45.4% | percent transmittance ([1]; MSM Percentage 0.5, day 3, 750 nm): 32.1% | percent transmittance ([1]; MSM Percentage 0.5, day 4, 750 nm): 27.6% | percent transmittance ([1]; MSM Percentage 0.5, day 5, 750 nm): 26.6% | percent transmittance ([1]; MSM Percentage 0.5, day 6, 750 nm): 25.1% | percent transmittance ([1]; MSM Percentage 0.5, day 7, 750 nm): 23.6% | percent transmittance ([1]; MSM Percentage 0.5, day 8, 750 nm): 22.8% | percent transmittance ([1]; MSM Percentage 0.5, day 9, 750 nm): 20.4% | percent transmittance ([1]; MSM Percentage 0.5, day 10, 750 nm): 18.9% | percent transmittance ([1]; MSM Percentage 1.0, day 0, 750 nm): 91.1% | percent transmittance ([1]; MSM Percentage 1.0, day 1, 750 nm): 80.5% | percent transmittance ([1]; MSM Percentage 1.0, day 2, 750 nm): 40.0% | percent transmittance ([1]; MSM Percentage 1.0, day 3, 750 nm): 31.0% | percent transmittance ([1]; MSM Percentage 1.0, day 4, 750 nm): 27.9% | percent transmittance ([1]; MSM Percentage 1.0, day 5, 750 nm): 26.5% | percent transmittance ([1]; MSM Percentage 1.0, day 6, 750 nm): 25.4% | percent transmittance ([1]; MSM Percentage 1.0, day 7, 750 nm): 24.4% | percent transmittance ([1]; MSM Percentage 1.0, day 8, 750 nm): 23.7% | percent transmittance ([1]; MSM Percentage 1.0, day 9, 750 nm): 21.0% | percent transmittance ([1]; MSM Percentage 1.0, day 10, 750 nm): 19.4% | percent transmittance ([1]; MSM Percentage 2.5, day 0, 750 nm): 82.8% | percent transmittance ([1]; MSM Percentage 2.5, day 1, 750 nm): 75.1% | percent transmittance ([1]; MSM Percentage 2.5, day 2, 750 nm): 59.5% | percent transmittance ([1]; MSM Percentage 2.5, day 3, 750 nm): 45.4% | percent transmittance ([1]; MSM Percentage 2.5, day 4, 750 nm): 33.6% | percent transmittance ([1]; MSM Percentage 2.5, day 5, 750 nm): 32.4% | percent transmittance ([1]; MSM Percentage 2.5, day 6, 750 nm): 30.0% | percent transmittance ([1]; MSM Percentage 2.5, day 7, 750 nm): 28.6% | percent transmittance ([1]; MSM Percentage 2.5, day 8, 750 nm): 27.7% | percent transmittance ([1]; MSM Percentage 2.5, day 9, 750 nm): 23.3% | percent transmittance ([1]; MSM Percentage 2.5, day 10, 750 nm): 21.1% | percent transmittance ([1]; MSM Percentage 5.0, day 0, 750 nm): 68.9% | percent transmittance ([1]; MSM Percentage 5.0, day 1, 750 nm): 87.4% | percent transmittance ([1]; MSM Percentage 5.0, day 2, 750 nm): 76.5% | percent transmittance ([1]; MSM Percentage 5.0, day 3, 750 nm): 62.0% | percent transmittance ([1]; MSM Percentage 5.0, day 4, 750 nm): 52.9% | percent transmittance ([1]; MSM Percentage 5.0, day 5, 750 nm): 52.2% | percent transmittance ([1]; MSM Percentage 5.0, day 6, 750 nm): 50.7% | percent transmittance ([1]; MSM Percentage 5.0, day 7, 750 nm): 51.0% | percent transmittance ([1]; MSM Percentage 5.0, day 8, 750 nm): 51.9% | percent transmittance ([1]; MSM Percentage 5.0, day 9, 750 nm): 47.1% | percent transmittance ([1]; MSM Percentage 5.0, day 10, 750 nm): 44.1% | percent transmittance ([1]; MSM Percentage 10.0, day 0, 750 nm): 49.6% | percent transmittance ([1]; MSM Percentage 10.0, day 1, 750 nm): 49.2% | percent transmittance ([1]; MSM Percentage 10.0, day 2, 750 nm): 50.8% | percent transmittance ([1]; MSM Percentage 10.0, day 3, 750 nm): 51.9% | percent transmittance ([1]; MSM Percentage 10.0, day 4, 750 nm): 52.0% | percent transmittance ([1]; MSM Percentage 10.0, day 5, 750 nm): 51.9% | percent transmittance ([1]; MSM Percentage 10.0, day 6, 750 nm): 54.9% | percent transmittance ([1]; MSM Percentage 10.0, day 7, 750 nm): 56.1% | percent transmittance ([1]; MSM Percentage 10.0, day 8, 750 nm): 58.6% | percent transmittance ([1]; MSM Percentage 10.0, day 9, 750 nm): 41.4% | percent transmittance ([1]; MSM Percentage 10.0, day 10, 750 nm): 36.7% | percent transmittance ([1]; MSM Percentage 20.0, day 0, 750 nm): 30.0% | percent transmittance ([1]; MSM Percentage 20.0, day 1, 750 nm): 33.8% | percent transmittance ([1]; MSM Percentage 20.0, day 2, 750 nm): 51.1% | percent transmittance ([1]; MSM Percentage 20.0, day 3, 750 nm): 54.8% | percent transmittance ([1]; MSM Percentage 20.0, day 4, 750 nm): 57.3% | percent transmittance ([1]; MSM Percentage 20.0, day 5, 750 nm): 57.5% | percent transmittance ([1]; MSM Percentage 20.0, day 6, 750 nm): 57.4% | percent transmittance ([1]; MSM Percentage 20.0, day 7, 750 nm): 57.1% | percent transmittance ([1]; MSM Percentage 20.0, day 8, 750 nm): 55.8% | percent transmittance ([1]; MSM Percentage 20.0, day 9, 750 nm): 45.1% | percent transmittance ([1]; MSM Percentage 20.0, day 10, 750 nm): 30.2% | percent transmittance ([2]; MSM 0.5, day 0, 750 nm): 47.3% | percent transmittance ([2]; MSM 0.5, day 1, 750 nm): 41.8% | percent transmittance ([2]; MSM 0.5, day 2, 750 nm): 29.3% | percent transmittance ([2]; MSM 0.5, day 3, 750 nm): 29.6% | percent transmittance ([2]; MSM 0.5, day 4, 750 nm): 19.0% | percent transmittance ([2]; MSM 0.5, day 5, 750 nm): 12.4% | percent transmittance ([2]; MSM 0.5, day 6, 750 nm): 12.5% | percent transmittance ([2]; MSM 0.5, day 7, 750 nm): 11.9% | percent transmittance ([2]; MSM 0.5, day 8, 750 nm): 12.2% | percent transmittance ([2]; MSM 0.5, day 9, 750 nm): 7.5% | percent transmittance ([2]; MSM 0.5, day 10, 750 nm): 6.4% | percent transmittance ([2]; MSM 1, day 0, 750 nm): 48.7% | percent transmittance ([2]; MSM 1, day 1, 750 nm): 42.5% | percent transmittance ([2]; MSM 1, day 2, 750 nm): 37.5% | percent transmittance ([2]; MSM 1, day 3, 750 nm): 37.5% | percent transmittance ([2]; MSM 1, day 4, 750 nm): 17.3% | percent transmittance ([2]; MSM 1, day 5, 750 nm): 13.5% | percent transmittance ([2]; MSM 1, day 6, 750 nm): 13.0% | percent transmittance ([2]; MSM 1, day 7, 750 nm): 12.5% | percent transmittance ([2]; MSM 1, day 8, 750 nm): 12.4% | percent transmittance ([2]; MSM 1, day 9, 750 nm): 7.8% | percent transmittance ([2]; MSM 1, day 10, 750 nm): 6.6% | percent transmittance ([2]; MSM 2.5, day 0, 750 nm): 40.6% | percent transmittance ([2]; MSM 2.5, day 1, 750 nm): 43.1% | percent transmittance ([2]; MSM 2.5, day 2, 750 nm): 44.9% | percent transmittance ([2]; MSM 2.5, day 3, 750 nm): 43.8% | percent transmittance ([2]; MSM 2.5, day 4, 750 nm): 26.1% | percent transmittance ([2]; MSM 2.5, day 5, 750 nm): 10.3% | percent transmittance ([2]; MSM 2.5, day 6, 750 nm): 10.9% | percent transmittance ([2]; MSM 2.5, day 7, 750 nm): 11.0% | percent transmittance ([2]; MSM 2.5, day 8, 750 nm): 11.2% | percent transmittance ([2]; MSM 2.5, day 9, 750 nm): 8.4% | percent transmittance ([2]; MSM 2.5, day 10, 750 nm): 6.0% | percent transmittance ([2]; MSM 5, day 0, 750 nm): 35.6% | percent transmittance ([2]; MSM 5, day 1, 750 nm): 31.2% | percent transmittance ([2]; MSM 5, day 2, 750 nm): 27.4% | percent transmittance ([2]; MSM 5, day 3, 750 nm): 21.4% | percent transmittance ([2]; MSM 5, day 4, 750 nm): 18.2% | percent transmittance ([2]; MSM 5, day 5, 750 nm): 15.7% | percent transmittance ([2]; MSM 5, day 6, 750 nm): 15.9% | percent transmittance ([2]; MSM 5, day 7, 750 nm): 16.3% | percent transmittance ([2]; MSM 5, day 8, 750 nm): 17.0% | percent transmittance ([2]; MSM 5, day 9, 750 nm): 13.7% | percent transmittance ([2]; MSM 5, day 10, 750 nm): 12.8% | percent transmittance ([2]; MSM 10, day 0, 750 nm): 31.2% | percent transmittance ([2]; MSM 10, day 1, 750 nm): 31.3% | percent transmittance ([2]; MSM 10, day 2, 750 nm): 29.7% | percent transmittance ([2]; MSM 10, day 3, 750 nm): 28.4% | percent transmittance ([2]; MSM 10, day 4, 750 nm): 29.0% | percent transmittance ([2]; MSM 10, day 5, 750 nm): 28.7% | percent transmittance ([2]; MSM 10, day 6, 750 nm): 27.1% | percent transmittance ([2]; MSM 10, day 7, 750 nm): 27.6% | percent transmittance ([2]; MSM 10, day 8, 750 nm): 27.1% | percent transmittance ([2]; MSM 10, day 9, 750 nm): 76.4% | percent transmittance ([2]; MSM 10, day 10, 750 nm): 93.8% | percent transmittance ([2]; MSM 20, day 0, 750 nm): 19.3% | percent transmittance ([2]; MSM 20, day 1, 750 nm): 21.9% | percent transmittance ([2]; MSM 20, day 2, 750 nm): 24.1% | percent transmittance ([2]; MSM 20, day 3, 750 nm): 28.1% | percent transmittance ([2]; MSM 20, day 4, 750 nm): 31.4% | percent transmittance ([2]; MSM 20, day 5, 750 nm): 33.6% | percent transmittance ([2]; MSM 20, day 6, 750 nm): 36.8% | percent transmittance ([2]; MSM 20, day 7, 750 nm): 40.6% | percent transmittance ([2]; MSM 20, day 8, 750 nm): 40.8% | percent transmittance ([2]; MSM 20, day 9, 750 nm): 84.8% | percent transmittance ([2]; MSM 20, day 10, 750 nm): 96.7%
